In patent publication US20130231307A1, “NOVEL ANTIVIRAL ACYCLIC NUCLEOSIDE PHOSPHONATES” (CENTRE NATIONAL DE LA RECHERCHE SCIENTIFIQUE, priority 2010, published 2013):
Like-named read-outs stand apart in the source and are kept apart here.

Key:
UMP-CMP kinase (hUCK) = molecular target: T1, UMP-CMP kinase (hUCK) (Homo sapiens, UniProt P30085); settings: cited from earlier work
T1 sequence (P30085 1-196): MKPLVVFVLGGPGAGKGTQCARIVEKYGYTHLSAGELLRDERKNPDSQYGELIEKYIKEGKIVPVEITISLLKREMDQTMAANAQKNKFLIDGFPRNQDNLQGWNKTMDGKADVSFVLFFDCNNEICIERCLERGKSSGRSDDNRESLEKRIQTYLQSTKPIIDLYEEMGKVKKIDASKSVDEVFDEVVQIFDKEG

DNA viruses = format: cell-based
[1] = system: HSV-1 TK^− (KOS acyclovir resistant, ACV)
[2] = system: herpes simplex virus type 1 (HSV-1) (KOS)
[3] = system: thymidine kinase-deficient VZV strain 07/1
[4] = in vivo; cited from earlier work

Compound: Nc1ccn(C[C@@H](CO)OCP(=O)(O)O)c(=O)n1 [cidofovir]
- substrate for hUCK (UMP-CMP kinase (hUCK)): not a substrate for hUCK

Compound: CC(C)(C)C(=O)OCOP(=O)(C/C=C\Cn1ccc(=O)[nH]c1=O)OCOC(=O)C(C)(C)C [Ia2]
- antiviral activity, [Z] versus corresponding [E] isomers (DNA viruses; HEL cell cultures): clearly less, or not antivirally active

Compound: CC(C)(C)C(=O)OCOP(=O)(C/C=C\Cn1cc(Br)c(=O)[nH]c1=O)OCOC(=O)C(C)(C)C [Ie2, (Z)—N^1-(4′-bis(POM)-phosphinyl-2′-butenyl)-5-bromo-uracil]
- antiviral activity, [Z] versus corresponding [E] isomers (DNA viruses): clearly less, or not antivirally active

Compound: CC(C)(C)C(=O)OCOP(=O)(C/C=C/Cn1cc(Br)c(=O)[nH]c1=O)OCOC(=O)C(C)(C)C [Ie1, (E)-N^1-(4′-bis(POM)-phosphinyl-2′-butenyl)-5-bromo-uracil]
- antiviral activity against mutant TK-deficient HSV-1 TK^− [1]: pronounced antiviral activity
- inhibitory activity against HSV-2 (HSV-2 (G)): most inhibitory
- inhibitory activity against HSV-1 [2]: most inhibitory
- inhibitory activity against VZV (VZV strain OKA): most inhibitory
- antiviral activity against mutant TK-deficient VZV TK [3]: pronounced antiviral activity

Compound: Nc1ncnc2c1ncn2CCOCP(=O)(O)OP(=O)(O)OP(=O)(O)O [PMEA-PP]
- half-life in the body [4]: > 15 H
